Values quoted from earlier work, collected in PMC8879107, “A3 Adenosine Receptor Antagonists with Nucleoside Structures and Their Anticancer Activity” (Pharmaceuticals, 2022).

How the values were obtained:
[1] = tested on: human prostate (PC3), colon (Caco-2) and hepatocyte (Hep G2) carcinomas; parameters: method as in PMID 29763615; conditions: all three tumor cell lines PC3, Caco-2, Hep G2; cited from earlier work
[2] = target: T1, human A3AR (Homo sapiens, UniProt P0DMS8); parameters: expressed in transfected cells; host or cells: CHO cells stably expressing A3AR and the GloSensor biosensor plasmid; method as in PMID 29763615, PMID 19839592; conditions: cited from earlier work
T1 sequence (P0DMS8 1-318): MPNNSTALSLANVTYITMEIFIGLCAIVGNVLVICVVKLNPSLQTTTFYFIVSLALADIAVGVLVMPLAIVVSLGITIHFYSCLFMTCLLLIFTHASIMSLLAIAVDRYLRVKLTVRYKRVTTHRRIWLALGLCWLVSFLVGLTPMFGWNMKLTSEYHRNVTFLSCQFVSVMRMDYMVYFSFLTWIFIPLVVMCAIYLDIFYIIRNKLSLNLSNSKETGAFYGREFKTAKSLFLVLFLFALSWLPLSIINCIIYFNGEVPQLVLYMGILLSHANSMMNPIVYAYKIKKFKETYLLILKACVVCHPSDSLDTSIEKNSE

## CNC(=O)[C@H]1O[C@@H](n2cnc3c(NC)nc(C#Cc4ccccc4)nc32)[C@H](O)[C@@H]1O [Compound 3, N^6-methyl-2-phenylethynyladenosine-5′-N-methyluronamide, reference compound]
[1]
  anticancer effect (cell growth inhibition): almost inactive
[2]
  functional behaviour at A3AR: full A3AR agonist
